Data taken from US8796466B2, “Hepatitis C virus inhibitors” (Bristol-Myers Squibb Company, priority 2009, dated 2014).
Where two headings read alike, the source gives them in different places.

Columns and labels:
[1] = system: HCV; details: literature references; cited from earlier work
[2] = system: HCV 1b genotype; test: HCV Replicon assay (HCV 1b genotype); assay type: cell-based, Hepatitis C virus; details: HCV 1b genotype replicon
Outline: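 HCV-neo replicon cells, wild-type plus lines carrying NS5A-region mutations, were exposed to compound; luciferase-reporter replicon variants were also used.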

[3] = Hepatitis C virus, class symbol, read-out: Range (EC50 values against HCV 1b)

Q: Which “activity against HCV in clinical trials” value [1] does the source give for cyclosporin A here?
A: active against HCV

Q: For CCNC(=O)N[C@@H](C(=O)N1CCC[C@H]1c1nc(-c2ccc(COCc3cccc(-c4c[nH]c([C@@H]5CCCN5C(=O)[C@H](NC(=O)NCC)c5ccccc5)n4)c3)cc2)c[nH]1)c1ccccc1 [OL-24, 1-ethyl-3-((1R)-2-((2S)-2-(4-(3-(((4-(2-((2S)-1-((2R)-2-((ethylcarbamoyl)amino)-2-phenylacetyl)-2-pyrrolidinyl)-1H-imidazol-4-yl)benzyl)oxy)methyl)phenyl)-1H-imidazol-2-yl)-1-pyrrolidinyl)-2-oxo-1-phenylethyl)urea], which EC50 [2, 3] is on record?
A: 0.002 to 0.099 nM

Q: For COC(=O)N[C@@H](C(=O)N1CCC[C@H]1c1nc(-c2ccc(COCc3cccc(-c4c[nH]c([C@@H]5CCCN5C(=O)[C@H](NC(=O)OC)c5ccccc5)n4)c3)cc2)c[nH]1)c1ccccc1 [OL-22], which EC50 ([2]; class symbol, read-out: Range (EC50 values against HCV 1b)) is on record?
A: 0.002 to 0.099 nM

Q: Which EC50 [2, 3] does the source give for O=C(NC1CCCC1)N[C@@H](C(=O)N1CCC[C@H]1c1nc(-c2ccc(COCc3cccc(-c4c[nH]c([C@@H]5CCCN5C(=O)[C@H](NC(=O)NC5CCCC5)c5ccccc5)n4)c3)cc2)c[nH]1)c1ccccc1 [OL-25, 1-cyclopentyl-3-((1R)-2-((2S)-2-(4-(3-(((4-(2-((2S)-1-((2R)-2-((cyclopentylcarbamoyl)amino)-2-phenylacetyl)-2-pyrrolidinyl)-1H-imidazol-4-yl)benzyl)oxy)methyl)phenyl)-1H-imidazol-2-yl)-1-pyrrolidinyl)-2-oxo-1-phenylethyl)urea] here?
A: 0.002 to 0.099 nM

Q: For COC(=O)N[C@H](C(=O)N1[C@H](c2ncc(-c3ccc(C#Cc4ccc(-c5cnc([C@@H]6C[C@@H]7C[C@@H]7N6C(=O)[C@@H](NC(=O)OC)C(C)C)[nH]5)cc4)cc3)[nH]2)C[C@@H]2C[C@@H]21)C(C)C [Example N8, methyl((1S)-1-(((1S,3S,5S)-3-(4-(4-((4-(2-((1S,3S,5S)-2-((2S)-2-((methoxycarbonyl)amino)-3-methylbutanoyl)-2-azabicyclo[3.1.0]hex-3-yl)-1H-imidazol-4-yl)phenyl)ethynyl)phenyl)-1H-imidazol-2-yl)-2-azabicyclo[3.1.0]hex-2-yl)carbonyl)-2-methylpropyl)carbamate], which EC50 [2, 3] is on record?
A: 10 to 350 nM

Q: Which EC50 ([2]; Hepatitis C virus, Effective 50% inhibitory concentration, read-out: 1b EC50) does the source give for COC(=O)N[C@H](C(=O)N1CCC[C@H]1c1ncc(-c2ccc(C#Cc3ccc4c(c3)CCc3nc([C@@H]5CCCN5C(=O)[C@@H](NC(=O)OC)C(C)C)[nH]c3-4)cc2)[nH]1)C(C)C [Example D-3, methyl ((1S)-1-(((2S)-2-(4-(4-((2-((2S)-1-((2S)-2-((methoxycarbonyl)amino)-3-methylbutanoyl)-2-pyrrolidinyl)-4,5-dihydro-1H-naphtho[1,2-d]imidazol-7-yl)ethynyl)phenyl)-1H-imidazol-2-yl)-1-pyrrolidinyl)carbonyl)-2-methylpropyl)carbamate] here?
A: 0.006 nM

Q: What about the EC50 [2, 3] of the same molecule?
A: 0.002 to 0.099 nM
